Measured values taken from ChEMBL document CHEMBL4739716, “Gpr139 receptor modulators” (2020).
pEC50: −log10 of the molar value.

Columns and labels:
[1] = biological target: T1, Probable G-protein coupled receptor 139 (Homo sapiens, UniProt Q6DWJ6); assay: Agonist activity at human GPR139 expressed in CHO-K1 cells assessed as increase in calcium flux by calcium 5 dye based FLIPR assay; format: functional, cell-based
T1 sequence (Q6DWJ6 whole entry): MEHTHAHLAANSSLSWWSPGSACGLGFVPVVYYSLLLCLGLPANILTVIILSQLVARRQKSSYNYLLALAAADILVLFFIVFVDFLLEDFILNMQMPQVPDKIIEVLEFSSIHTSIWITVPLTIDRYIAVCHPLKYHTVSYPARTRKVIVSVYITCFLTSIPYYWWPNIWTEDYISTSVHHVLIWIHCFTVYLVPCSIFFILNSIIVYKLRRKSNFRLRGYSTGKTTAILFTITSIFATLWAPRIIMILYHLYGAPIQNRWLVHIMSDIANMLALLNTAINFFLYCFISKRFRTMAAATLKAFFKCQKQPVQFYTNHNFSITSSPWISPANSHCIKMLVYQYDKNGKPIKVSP

[2] = biological target: T2, Probable G-protein coupled receptor 139 (Homo sapiens) (UniProt Q6DWJ6); assay: Agonist activity at human GPR139 expressed in CHO-K1 cells assessed as increase in calcium flux by calcium 5 dye based FLIPR assay relative to JNJ63533054; format: functional, cell-based
T2 sequence (whole entry): T1 sequence (Q6DWJ6 whole entry)

[3] = biological target: T3, Probable G-protein coupled receptor 139 (Rattus norvegicus, UniProt P0C0W8); assay: Agonist activity at rat GPR139 expressed in CHO-K1 cells assessed as increase in calcium flux by calcium 5 dye based FLIPR assay; format: cell-based
T3 sequence (P0C0W8 whole entry): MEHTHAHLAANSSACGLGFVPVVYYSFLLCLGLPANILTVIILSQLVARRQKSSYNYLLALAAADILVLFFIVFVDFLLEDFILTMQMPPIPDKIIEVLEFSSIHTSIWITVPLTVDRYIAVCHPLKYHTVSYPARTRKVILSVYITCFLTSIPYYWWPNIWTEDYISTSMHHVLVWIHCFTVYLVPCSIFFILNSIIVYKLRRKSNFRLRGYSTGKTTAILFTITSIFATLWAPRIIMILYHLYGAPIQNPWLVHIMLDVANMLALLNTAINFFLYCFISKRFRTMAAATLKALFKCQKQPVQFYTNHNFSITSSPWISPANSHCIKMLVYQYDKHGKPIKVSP

[4] = biological target: T4, Probable G-protein coupled receptor 139 (Rattus norvegicus) (UniProt P0C0W8); assay: Agonist activity at rat GPR139 expressed in CHO-K1 cells assessed as increase in calcium flux by calcium 5 dye based FLIPR assay relative to JNJ63533054; format: cell-based
T4 sequence (whole entry): T3 sequence (P0C0W8 whole entry)

| pEC50 ([1]; cho-k1) | Emax ([2]; filed as agonist) [%] | pEC50 [3] | Emax [4] [%] | pEC50 ([3]; cho-k1) | Emax ([4]; filed as agonist) [%] | pEC50 [1] | Emax [2] [%] | Structure (SMILES) |
| --- | --- | --- | --- | --- | --- | --- | --- | --- |
| 8.00 | > 80 | ≤ 7.00 | 25 | – | – | – | – | C[C@H](NC(=O)Cn1nc2ncccn2c1=O)c1ccc(OC(F)F)c(F)c1 |
| 9.00 | > 80 | – | – | 9.00 | 50 | – | – | C[C@H](NC(=O)Cn1nc2c(NC3COC3)nccn2c1=O)c1ccc(Cl)c(F)c1 |
| 8.00 | 50 | – | – | 8.00 | 50 | – | – | C[C@H](NC(=O)Cn1nc2cccnn2c1=O)c1ccc(C2CC2)cc1 |
| 9.00 | > 80 | – | – | 9.00 | 50 | – | – | Cc1ccc([C@H](C)NC(=O)Cn2nc3cnc(C)cn3c2=O)cc1 |
| – | > 80 | ≤ 7.00 | < 25 | – | – | > 9.00 | – | Cc1cc2nn(CC(=O)N[C@@H](C)c3ccc(Cl)cc3)c(=O)n2c(C)n1 |
| 9.00 | > 80 | – | – | – | – | – | – | Cc1ccc([C@H](C)NC(=O)Cn2nc3ccncn3c2=O)cc1 |
| – | 50 | – | – | – | – | ≤ 7.00 | – | C[C@H](NC(=O)Cn1nc2ccccn2c1=O)c1cncc(F)c1 |
| 9.00 | > 80 | – | – | 8.00 | 50 | – | – | C[C@H](NC(=O)Cn1nc2c(N3CCNCC3)nccn2c1=O)c1ccc(Cl)c(F)c1 |
| 9.00 | – | – | – | 9.00 | – | – | – | Cc1ccc([C@H](C)NC(=O)C(C)n2nc3ccccn3c2=O)cc1 (stereo in doubt; form 1) [listing 1 of 2 here] |
| – | > 80 | > 9.00 | – | – | > 80 | > 9.00 | – | C[C@H](NC(=O)Cn1nc2cc(I)ccn2c1=O)c1ccc(Cl)c(F)c1 |
| 9.00 | 50 | ≤ 7.00 | < 25 | – | – | – | – | Cc1ccn2c(=O)n(CC(=O)N[C@@H](C)c3ccc(OC(F)(F)F)cc3)nc2n1 |
| 9.00 | > 80 | – | 25 | 8.00 | – | – | – | C[C@H](NC(=O)Cn1nc2ccccn2c1=O)c1ccc(OC(F)F)cc1 |
| 8.00 | – | ≤ 7.00 | < 25 | – | – | – | 25 | C[C@H](NC(=O)Cn1nc2ccc(N3CCCCC3)nn2c1=O)c1ccc(OC(F)(F)F)cc1 |
| 9.00 | > 80 | – | – | 8.00 | 50 | – | – | C[C@H](NC(=O)Cn1nc2cccnn2c1=O)c1ccc(OC(F)(F)F)cc1 |
| 8.00 | > 80 | ≤ 7.00 | – | – | 50 | – | – | Cc1ccc([C@H](C)NC(=O)Cn2nc3cnccn3c2=O)cc1 |
| – | > 80 | > 9.00 | – | – | > 80 | > 9.00 | – | C[C@H](NC(=O)Cn1nc2ccc(Cl)nn2c1=O)c1ccc(Cl)c(F)c1 |
| 8.00 | > 80 | ≤ 7.00 | < 25 | – | – | – | – | C[C@H](NC(=O)Cn1nc2ncccn2c1=O)c1ccc(OC(F)(F)F)cc1 |
| 8.00 | > 80 | – | – | – | – | – | – | O=C(Cn1nc2ccccn2c1=O)NC(c1ccc(Cl)cc1)C1CC1 (stereo unspecified) |
| – | > 80 | > 9.00 | – | – | > 80 | > 9.00 | – | CNc1nccn2c(=O)n(CC(=O)N[C@@H](C)c3ccc(Cl)c(F)c3)nc12 |
| 9.00 | 50 | ≤ 7.00 | < 25 | – | – | – | – | Cc1cc(C)n2c(=O)n(CC(=O)N[C@@H](C)c3ccc(Cl)cc3)nc2n1 |
| – | 50 | ≤ 7.00 | – | – | 50 | ≤ 7.00 | – | Cc1ccc([C@H](C)NC(=O)Cn2nc3c(C4CCNC4)cccn3c2=O)cc1 (stereo partly specified) |
| – | 50 | ≤ 7.00 | 25 | – | – | ≤ 7.00 | – | C[C@H](NC(=O)Cn1nc2c(OC3CNC3)nccn2c1=O)c1ccc(Cl)c(F)c1 |
| 9.00 | > 80 | – | – | 8.00 | 50 | – | – | C[C@H](NC(=O)Cn1nc2ncccn2c1=O)c1ccc(Cl)c(Cl)c1 |
| 8.00 | 50 | ≤ 7.00 | 25 | – | – | – | – | CC(C)Oc1ccc([C@H](C)NC(=O)Cn2nc3ccccn3c2=O)cc1 |
| – | > 80 | – | – | 9.00 | > 80 | > 9.00 | – | C[C@H](NC(=O)Cn1nc2cccc(N3CCOCC3)n2c1=O)c1ccc(Cl)c(F)c1 |
| 9.00 | > 80 | – | – | 9.00 | > 80 | – | – | Cc1cnc2nn(CC(=O)N[C@@H](C)c3ccc(Cl)c(F)c3)c(=O)n2c1 |

| pEC50 ([1]; cho-k1) | Emax ([2]; filed as agonist) [%] | pEC50 [3] | Emax [4] [%] | pEC50 ([3]; cho-k1) | Emax ([4]; filed as agonist) [%] | pEC50 [1] | Emax [2] [%] | Structure (SMILES) |
| --- | --- | --- | --- | --- | --- | --- | --- | --- |
| – | > 80 | > 9.00 | – | – | 50 | > 9.00 | – | C[C@H](NC(=O)Cn1nc2ccccn2c1=O)c1ccc(Cl)cc1 |
| – | 50 | – | – | – | – | ≤ 7.00 | – | C[C@@H](NC(=O)Cn1nc2ccccn2c1=O)c1ccc(OC(F)F)cc1 |
| – | > 80 | > 9.00 | – | – | > 80 | > 9.00 | – | C[C@H](NC(=O)Cn1nc2c(N3CCCCC3)nccn2c1=O)c1ccc(Cl)c(F)c1 |
| 9.00 | > 80 | – | 25 | 9.00 | – | – | – | C[C@H](NC(=O)Cn1nc2ccccn2c1=O)c1ccc(OC(F)(F)F)cc1 |
| – | > 80 | – | – | 9.00 | 50 | > 9.00 | – | Cc1cc(C)n2c(=O)n(CC(=O)N[C@@H](C)c3ccc(Cl)c(F)c3)nc2n1 |
| – | > 80 | – | – | 9.00 | > 80 | > 9.00 | – | C[C@H](NC(=O)Cn1nc2c(I)ccnn2c1=O)c1ccc(Cl)c(F)c1 |
| 9.00 | 50 | – | – | 9.00 | > 80 | – | – | C[C@H](NC(=O)Cn1nc2c(N3CCN(C)CC3)nccn2c1=O)c1ccc(Cl)c(F)c1 |
| 8.00 | > 80 | – | – | – | – | – | – | CC(NC(=O)Cn1nc2ccccn2c1=O)c1ccc(OC(F)F)cc1 (stereo in doubt) |
| 9.00 | > 80 | – | – | 9.00 | 50 | – | – | COc1ccn2c(=O)n(CC(=O)N[C@@H](C)c3ccc(Cl)cc3)nc2n1 |
| – | 50 | – | – | – | – | ≤ 7.00 | – | Cc1ccc([C@@H](C)NC(=O)Cn2nc3ccccn3c2=O)cc1 |
| 9.00 | > 80 | – | – | 9.00 | 50 | – | – | Cc1ccc([C@H](C)NC(=O)Cn2nc3c(N)cccn3c2=O)cc1 |
| – | > 80 | > 9.00 | – | – | > 80 | > 9.00 | – | Cc1nccn2c(=O)n(CC(=O)N[C@@H](C)c3ccc(Cl)c(F)c3)nc12 |
| 8.00 | > 80 | ≤ 7.00 | 25 | – | – | – | – | C[C@H](NC(=O)Cn1nc2ncccn2c1=O)c1ccc(Cl)cc1 |
| 9.00 | > 80 | > 9.00 | – | – | 50 | – | – | Cc1ccc([C@H](C)NC(=O)Cn2nc3c(Cl)cccn3c2=O)cc1 |
| 9.00 | > 80 | ≤ 7.00 | 25 | – | – | – | – | Cc1cn2c(=O)n(CC(=O)N[C@@H](C)c3ccc(OC(F)(F)F)cc3)nc2cn1 |
| – | 50 | – | 25 | 9.00 | – | > 9.00 | – | C[C@H](NC(=O)Cn1nc2cccc(N3CC(O)C3)n2c1=O)c1ccc(OC(F)(F)F)cc1 |
| – | > 80 | – | – | 9.00 | > 80 | > 9.00 | – | CC1COCCN1c1cccc2nn(CC(=O)N[C@@H](C)c3ccc(Cl)c(F)c3)c(=O)n12 (stereo partly specified) |
| 9.00 | 50 | ≤ 7.00 | < 25 | – | – | – | – | Cc1ccnc2nn(CC(=O)N[C@@H](C)c3ccc(OC(F)(F)F)cc3)c(=O)n12 |
| 9.00 | > 80 | – | – | – | – | – | – | Cc1ccc([C@H](C)NC(=O)Cn2nc3cccc(Br)n3c2=O)cc1 |
| 9.00 | > 80 | ≤ 7.00 | – | – | > 80 | – | – | C[C@H](NC(=O)Cn1nc2cccc(N3CCN(C)CC3)n2c1=O)c1ccc(Cl)c(F)c1 |
| 9.00 | > 80 | – | – | – | – | – | – | Cc1ccc([C@H](C)NC(=O)Cn2nc3cc(C)nc(C)n3c2=O)cc1 |
| – | > 80 | – | – | 9.00 | > 80 | > 9.00 | – | Cc1nccn2c(=O)n(CC(=O)N[C@@H](C)c3ccc(OC(F)(F)F)cc3)nc12 |
| 9.00 | > 80 | – | – | 9.00 | > 80 | – | – | C[C@H](NC(=O)Cn1nc2cnccn2c1=O)c1ccc(Cl)c(F)c1 |
| 8.00 | > 80 | ≤ 7.00 | 25 | – | – | – | – | C[C@H](NC(=O)Cn1nc2cccc(N3CCNCC3)n2c1=O)c1ccc(OC(F)(F)F)cc1 |
| – | > 80 | – | – | – | 50 | – | – | Cc1ccc([C@H](C)NC(=O)C(C)n2nc3ccccn3c2=O)cc1 (stereo in doubt; form 1) [listing 2 of 2 here] |
| 9.00 | 50 | – | – | – | – | – | – | Cc1ccc([C@H](C)NC(=O)Cn2nc3c(NC(=O)OC(C)(C)C)cccn3c2=O)cc1 |
